Measured values from US11517617B2, “Methods and compositions for preventing influenza infection” (THE UNIVERSITY OF MELBOURNE, priority 2017, dated 2022).

Test system: memory CD8^+ T cells within PBMCs
Type: cell-based, human

| Sequence | cross-reactivity of CD8^+ T cells after in vitro expansion with the peptide | recognition of IBV-derived variant by IAV-expanded CD8^+ T cells |
| --- | --- | --- |
| FEDLRVLSA (Influenza A virus) [NP338-345] | recognizing both IAV- and IBV-derived peptides | – |
| YEDLRVLSA (Influenza B virus) [BNP394-401] | could not expand CD8^+ T cells | to a lesser extent |
